Patent US11851449B2, “Heterocyclic amide compounds having an RORvt inhibitory action” (TAKEDA PHARMACEUTICAL COMPANY LIMITED, priority 2013, dated 2023)
Like-named read-outs stand apart in the source and are kept apart here.

How the values were obtained:
RORγt [1] = target: T1, RORγt (Homo sapiens, UniProt P51449); assay: RORγt binding test (TR-FRET, fluorescent-labeled cholesterol); conditions: read-out: binding inhibitory rate (%) of fluorescent-labeled cholesterol to RORγt at test compound 1 μM
T1 sequence (P51449 1-497 isoform P51449-2): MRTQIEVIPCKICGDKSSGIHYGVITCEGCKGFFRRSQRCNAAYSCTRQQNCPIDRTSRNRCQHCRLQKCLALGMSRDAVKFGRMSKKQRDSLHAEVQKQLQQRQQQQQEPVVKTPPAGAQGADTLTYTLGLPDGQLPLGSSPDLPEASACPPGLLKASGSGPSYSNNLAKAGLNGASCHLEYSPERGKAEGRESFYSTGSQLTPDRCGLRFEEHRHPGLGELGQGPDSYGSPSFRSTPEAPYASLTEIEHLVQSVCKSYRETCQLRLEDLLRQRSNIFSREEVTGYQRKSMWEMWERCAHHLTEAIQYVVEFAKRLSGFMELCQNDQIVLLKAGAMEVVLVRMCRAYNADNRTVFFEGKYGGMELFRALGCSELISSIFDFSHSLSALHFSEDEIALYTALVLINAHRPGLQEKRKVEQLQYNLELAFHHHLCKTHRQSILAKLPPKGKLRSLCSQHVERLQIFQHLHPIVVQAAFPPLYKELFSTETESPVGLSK
Outline: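 His-tagged RORγt and BODIPY-cholesterol were incubated with compound for 20 min at room temperature in Tris-HCl pH 7.5, 100 mM NaCl, 1 mM DTT and 0.1% BSA. Terbium anti-His antibody was then added for a further 20 min.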

RORγt [2] = target: T1, RORγt; assay: Jurkat reporter test (human IL-17 ROR response element luciferase reporter); format: cell-based; conditions: read-out: luminescence level inhibitory rate (%) at test compound 3 μM
Outline: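 Luminescence (Bright-Glo, 10 min, RT) was measured after overnight compound treatment of electroporated Jurkat cells (1350 V, 10 ms interval, 3 pulses). The reaction medium was RPMI with 10% lipid-reduced FCS, 10 mM HEPES (pH 7.5) and 5 μM lovastatin.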

RORγt [3] = target: T1, RORγt; assay: Cofactor recruitment test (Alpha Screen, biotinylated SRC-1 peptide); format: biochemical; conditions: read-out: signal value inhibitory rate (%) at test compound 1 μM
Procedure: Cofactor Recruitment Test
Cofactor recruitment test was performed by Alpha Screen (Histidine Detection Kit, PerkinElmer) method. First, a test compound was diluted with an assay buffer (50 mM Tris-HCl (pH 7.5), 50 mM KCl, 1 mM DTT, 0.1% BSA) and added to a 384 well plate by 5 μL. […] The mixture was stood in a dark place for 1 hr, and the signal value was measured by Envision (PerkinElmer).

IL-17A gene expression = assay: Effect on IL-23-induced IL-17A gene expression in mice; format: in vivo; conditions: Balb/c mice, ear tissue 24 hr after intradermal IL-23; 100 mg/kg orally 30 min before and 8 hr after IL-23; versus the negative control group
Procedure: Effect on IL-23-Induced IL-17A Gene Expression in Mice
A mouse IL-23 solution (500 ng/10 μL, prepared by Takeda Pharmaceutical Company Limited) or PBS (10 μL, negative control group) was administered intradermally in the ear of Balb/c mice (Charles River Japan, male, 7 weeks old). Twenty-four hr after administration, the ear was resected under isoflurane anesthesia. The test compound was suspended in 0.5% methylcellulose and administered orally 30 min before and 8 hr after IL-23 administration.
RNA extraction from the ear tissue and quantitative PCR were performed as follows. Specifically, ear tissue 5 mm in diameter was punched from an area of the resected ear centering on the IL-23 injection site, and the tissue was immersed in RNAlater (QIAGEN) for at least 18 hr. The RNAlater-treated ear tissue was homogenized in 350 μL of RLT buffer (RNeasy mini kit, QIAGEN) and treated (55° C., 10 min) with Proteinase K (QIAGEN). Total RNA was then extracted according to the RNeasy mini kit protocol. The RNA thus obtained was then reverse transcribed into cDNA using the High-Capacity RNA-to-cDNA kit (Applied Biosystems), and the amount of each cytokine expressions was measured by real-time PCR (Viia7™, Applied Biosystems). The PCR buffer used was TaqMan Fast Advanced Master Mix (Applied Biosystems), and TaqMan Gene Expression Assays (Applied Biosystems) Mm00439618 m1 (IL-17A) and 4352341E (β-actin) were used for cytokine gene detection. The IL-17A gene expression level was normalized to the β-actin gene expression level, and the percent inhibition of IL-17A gene expression with the test compound was then calculated.
The results obtained with the above-described method (percent inhibition of IL-17A gene expression with oral administration of the test compound) are shown in Table 3.

[4] = tested on: mouse model of IL-23-induced psoriasis; assay: Effect in a mouse model of IL-23-induced psoriasis; format: in vivo; conditions: Balb/c mice, 100 mg/kg orally twice daily, versus the negative control group
Procedure: Effect in a Mouse Model of IL-23-Induced Psoriasis
Mouse IL-23 (500 ng/15 μL, R&D) or PBS (15 μL, negative control group) was administered intradermally in the ear of Balb/c mice (Charles River Japan, male, 7 weeks old) 5 times every other days. Seven hr after IL-23 administration at 8 days after the initial administration (final administration), the mice were anesthetized with isoflurane, and ear thickness was measured with calipers. After the ear thickness was measured, the ear was resected, the tissue 8 mm in diameter was punched from an area centering on the IL-23 injection site, and the tissue was weighed. […]
The change in ear thickness in this model was evaluated by calculating the difference in measured thickness between before IL-23 administration and 7 hr after the final IL-23 administration.
The amount of IL-17 in the ear tissue was performed as follows. […] The homogenized solution was centrifuged, and the amount of IL-17 in the supernatant was measured using ELISA kit (R&D), and the amount of protein in the supernatant was measured using pierce BCA protein assay kit (Thermo scientific). The amount of IL-17 in each ear tissue was normalized to the amount of protein, and the percent inhibition of IL-17A production with the test compound was then calculated. […]

Structure (SMILES): COCc1ccc([C@@H](NC(=O)Cc2cc(O)no2)C(=O)Nc2ccc(C(C)(C)C)c(F)c2)cc1 [Example 106, (2R)—N-(4-tert-butyl-3-fluorophenyl)-2-(((3-hydroxy-1,2-oxazol-5-yl)acetyl)amino)-2-(4-(methoxymethyl)phenyl)acetamide]
- inhibition at 1 µM (RORγt [1]): 103%
- inhibition at 3 µM (RORγt [2]; test compound 3 μM, Jurkat cells): 99.8%
- inhibition at 1 µM (RORγt [3]): 88%
- percent inhibition of IL-17A gene expression (IL-17A gene expression): 43%

Structure (SMILES): COc1ccc([C@H](C(=O)Nc2cc(F)c([Si](C)(C)C)c(F)c2)N(C)C(=O)c2cc(O)no2)cc1 [Example 23, N-((1R)-2-((3,5-difluoro-4-(trimethylsilyl)phenyl)amino)-1-(4-methoxyphenyl)-2-oxoethyl)-3-hydroxy-N-methyl-1,2-oxazole-5-carboxamide]
- percent inhibition of IL-17A gene expression (IL-17A gene expression): 71%

Structure (SMILES): COc1ccc([C@H](C(=O)Nc2ccc([Si](C)(C)C)cc2)N(C)C(=O)c2cc(O)no2)cc1 [Example 14, 3-hydroxy-N-((1R)-1-(4-methoxyphenyl)-2-oxo-2-((4-(trimethylsilyl)phenyl)amino)ethyl)-N-methyl-1,2-oxazole-5-carboxamide]
- percent inhibition of IL-17A gene expression (IL-17A gene expression): 53%

Structure (SMILES): COc1ccc([C@H](C(=O)Nc2ccc([Si](C)(C)C)c(F)c2)N(C)C(=O)c2cc(O)no2)cc1 [Example 24, N-((1R)-2-((3-fluoro-4-(trimethylsilyl)phenyl)amino)-1-(4-methoxyphenyl)-2-oxoethyl)-3-hydroxy-N-methyl-1,2-oxazole-5-carboxamide]
- inhibition at 1 µM (RORγt [1]): 102%
- percent inhibition of ear thickness ([4]; IL-23 intradermally in the ear 5 times every other day): 76%
- percent inhibition of IL-17 production ([4]; ear tissue, ELISA normalized to protein): 96%
- inhibition at 3 µM (RORγt [2]; Jurkat): 100%
- inhibition at 1 µM (RORγt [3]): 95.3%
- percent inhibition of IL-17A gene expression (IL-17A gene expression): 65%

Structure (SMILES): COCc1ccc(C(NC(=O)N2CCC(O)C2)C(=O)Nc2ccc([Si](C)(C)C)c(F)c2)cc1 (stereo not drawn) [Example 33, N-(2-((3-fluoro-4-(trimethylsilyl)phenyl)amino)-1-(4-(methoxymethyl)phenyl)-2-oxoethyl)-3-hydroxypyrrolidine-1-carboxamide]
- inhibition at 1 µM (RORγt [1]): 101%
- inhibition at 3 µM (RORγt [2]; Jurkat): 98.4%
- inhibition at 1 µM (RORγt [3]): 97.7%

Structure (SMILES): COCc1ccc([C@@H](NC(=O)c2cc(O)no2)C(=O)Nc2cc(F)c([Si](C)(C)C)c(F)c2)cc1 [Example 82, N-((1R)-2-((3,5-difluoro-4-(trimethylsilyl)phenyl)amino)-1-(4-(methoxymethyl)phenyl)-2-oxoethyl)-3-hydroxy-1,2-oxazole-5-carboxamide]
- inhibition at 1 µM (RORγt [1]): 103%
- inhibition at 3 µM (RORγt [2]; Jurkat): 97%
- inhibition at 1 µM (RORγt [3]): 96.8%

Structure (SMILES): COc1ccc(C(C(=O)Nc2cc(F)c([Si](C)(C)C)cc2F)N(C)C(=O)c2cc(O)no2)cc1 (stereo not drawn) [Example 21, N-(2-((2,5-difluoro-4-(trimethylsilyl)phenyl)amino)-1-(4-methoxyphenyl)-2-oxoethyl)-3-hydroxy-N-methyl-1,2-oxazole-5-carboxamide]
- inhibition at 1 µM (RORγt [1]): 101%
- inhibition at 3 µM (RORγt [2]; Jurkat): 98.3%
- inhibition at 1 µM (RORγt [3]): 93.1%

Structure (SMILES): COc1ccc(C(C(=O)Nc2ccc([Si](C)(C)C)c(Cl)c2)N(C)C(=O)c2cc(O)no2)cc1 (stereo not drawn) [Example 48, N-(2-((3-chloro-4-(trimethylsilyl)phenyl)amino)-1-(4-methoxyphenyl)-2-oxoethyl)-3-hydroxy-N-methyl-1,2-oxazole-5-carboxamide]
- inhibition at 1 µM (RORγt [1]): 103%
- inhibition at 3 µM (RORγt [2]; Jurkat): 95.7%
- inhibition at 1 µM (RORγt [3]): 73%
